The source made the active and inactive calls. The calls are words filed in the database; no cut-off is given here.

What is called clearance is the volume of plasma or blood freed of the substance per unit of time. Low values mean inefficient removal, high ones efficient removal. The term MRT denotes the average time that molecules of a dose stay in the body. The IC50 is the midpoint of a concentration-inhibition curve. As a reminder, the inhibition is the percentage by which the read-out fell short of the control. Higher therefore signals a strong effect.

A short description of data set [1]: Observed clearance in Sprague-Dawley rat at 2.5 mg/kg,iv administration. It counts as ADME, organism-based. As to conditions: in vivo.
The nature of data set [2]: MRT in Sprague-Dawley rat at 2.5 mg/kg,iv administration. The settings on record: in vivo. It counts as ADME, organism-based.
Another data set deals with Cytochrome P450 3A4 (Homo sapiens, UniProt P08684). Put plainly: Inhibition of CYP3A4-M in human liver microsomes in presence of NADPH. The class given is ADME, Microsome.
The subject of data set [3] is Rattus norvegicus. Put plainly: Antifibrotic activity against bile duct ligation induced Sprague-Dawley rat liver fibrosis model assessed as reduction in collagen deposition at 2.5 mg/kg,ip administrated once daily for 21 days by Masson's trichome staining based analysis. The settings on record: time 21.0 day. It counts as functional, organism-based.
In another data set the target is T1, Cytochrome P450 1A2 (Homo sapiens, UniProt P05177).
T1 sequence (P05177 whole entry): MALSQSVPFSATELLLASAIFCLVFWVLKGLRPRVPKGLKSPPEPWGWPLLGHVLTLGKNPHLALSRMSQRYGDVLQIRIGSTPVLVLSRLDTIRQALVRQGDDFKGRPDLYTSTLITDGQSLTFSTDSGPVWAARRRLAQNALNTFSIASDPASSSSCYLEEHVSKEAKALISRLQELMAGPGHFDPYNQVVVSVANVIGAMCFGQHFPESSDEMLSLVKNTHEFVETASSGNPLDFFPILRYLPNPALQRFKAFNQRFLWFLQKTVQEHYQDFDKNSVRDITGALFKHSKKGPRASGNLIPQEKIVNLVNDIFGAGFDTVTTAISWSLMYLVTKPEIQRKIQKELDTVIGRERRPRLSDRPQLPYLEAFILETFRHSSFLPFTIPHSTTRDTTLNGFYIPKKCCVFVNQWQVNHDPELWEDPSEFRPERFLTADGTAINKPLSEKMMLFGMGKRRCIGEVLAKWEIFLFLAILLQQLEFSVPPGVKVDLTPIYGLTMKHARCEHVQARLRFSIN
Put plainly: Inhibition of CYP1A2 in human liver microsomes in presence of NADPH. The class given is ADME, Microsome. (In general: Liver microsomes are vesicles of endoplasmic reticulum, rich in cytochrome P450 enzymes.)

A further data set deals with Cytochrome P450 2C9 (Homo sapiens, UniProt P11712). Put plainly: Inhibition of CYP2C9 in human liver microsomes in presence of NADPH. It counts as ADME, Microsome.
Data set [4] concerns the target cAMP and cAMP-inhibited cGMP 3',5'-cyclic phosphodiesterase 10A (Homo sapiens, UniProt Q9Y233). Put plainly: Inhibition of PDE10A (449 to 770 residues) (unknown origin) using 3H-cAMP as substrate.
For data set [5], the system named is LX-2. Put plainly: Antifibrotic activity against TGF-beta induced human LX-2 cell activation assessed as downregulation of fibronectin expression incubated for 48 hrs by Western blotting analysis. It counts as functional, cell-based. Background: Immunoblotting shows a protein as a band on a membrane.
Data set [6] concerns the target High affinity 3',5'-cyclic-AMP phosphodiesterase 7A (Homo sapiens, UniProt Q13946). Put plainly: Inhibition of PDE7A (130 to 482 residues) (unknown origin) using 3H-cAMP as substrate at 5000 nM relative to control.
Data set [7] has as its system Rattus norvegicus. Put plainly: Antifibrotic activity against bile duct ligation induced Sprague-Dawley rat liver fibrosis model assessed as increase in cGMP level in liver at 2.5 mg/kg,ip administrated once daily for 21 days by ELISA. It counts as functional, organism-based. The settings on record: time 21.0 day. Background: An ELISA detects its analyte on a solid surface through an enzyme-linked reagent.

In data set [8] the target is High affinity cGMP-specific 3',5'-cyclic phosphodiesterase 9A (Homo sapiens, UniProt O76083). Put plainly: Inhibition of PDE9A (181 to 506 residues) (unknown origin) using 3H-cGMP as substrate.
The target in data set [9] is cGMP-inhibited 3',5'-cyclic phosphodiesterase 3A (Homo sapiens, UniProt Q14432). Put plainly: Inhibition of PDE3A (679 to 1087 residues) (unknown origin) using 3H-cAMP as substrate at 5000 nM relative to control.
For data set [10], the system named is Rattus norvegicus. Put plainly: Antifibrotic activity against bile duct ligation induced Sprague-Dawley rat liver fibrosis model assessed as reduction in ALT level at 2.5 mg/kg,ip administrated once daily for 21 days. It counts as functional, organism-based. The settings on record: time 21.0 day.
Data set [11] has as its system LX-2. Put plainly: Antifibrotic activity against TGF-beta induced human LX-2 cell activation assessed as downregulation of alpha-SMA expression incubated for 48 hrs by Western blotting analysis. It counts as functional, cell-based.
The target of data set [12] is Voltage-gated inwardly rectifying potassium channel KCNH2 (Homo sapiens, UniProt Q12809). Put plainly: Inhibition of hERG expressed in CHO cells by automated patch clamp electrophysiology analysis. The class given is toxicity, cell-based.
Data set [13] has as its target High affinity cAMP-specific and IBMX-insensitive 3',5'-cyclic phosphodiesterase 8A (Homo sapiens, UniProt O60658). Put plainly: Inhibition of PDE8A (480 to 820 residues) (unknown origin) using 3H-cAMP as substrate.

Chain of cAMP and cAMP-inhibited cGMP 3',5'-cyclic phosphodiesterase 10A (Q9Y233 whole entry, the tested form may be a part): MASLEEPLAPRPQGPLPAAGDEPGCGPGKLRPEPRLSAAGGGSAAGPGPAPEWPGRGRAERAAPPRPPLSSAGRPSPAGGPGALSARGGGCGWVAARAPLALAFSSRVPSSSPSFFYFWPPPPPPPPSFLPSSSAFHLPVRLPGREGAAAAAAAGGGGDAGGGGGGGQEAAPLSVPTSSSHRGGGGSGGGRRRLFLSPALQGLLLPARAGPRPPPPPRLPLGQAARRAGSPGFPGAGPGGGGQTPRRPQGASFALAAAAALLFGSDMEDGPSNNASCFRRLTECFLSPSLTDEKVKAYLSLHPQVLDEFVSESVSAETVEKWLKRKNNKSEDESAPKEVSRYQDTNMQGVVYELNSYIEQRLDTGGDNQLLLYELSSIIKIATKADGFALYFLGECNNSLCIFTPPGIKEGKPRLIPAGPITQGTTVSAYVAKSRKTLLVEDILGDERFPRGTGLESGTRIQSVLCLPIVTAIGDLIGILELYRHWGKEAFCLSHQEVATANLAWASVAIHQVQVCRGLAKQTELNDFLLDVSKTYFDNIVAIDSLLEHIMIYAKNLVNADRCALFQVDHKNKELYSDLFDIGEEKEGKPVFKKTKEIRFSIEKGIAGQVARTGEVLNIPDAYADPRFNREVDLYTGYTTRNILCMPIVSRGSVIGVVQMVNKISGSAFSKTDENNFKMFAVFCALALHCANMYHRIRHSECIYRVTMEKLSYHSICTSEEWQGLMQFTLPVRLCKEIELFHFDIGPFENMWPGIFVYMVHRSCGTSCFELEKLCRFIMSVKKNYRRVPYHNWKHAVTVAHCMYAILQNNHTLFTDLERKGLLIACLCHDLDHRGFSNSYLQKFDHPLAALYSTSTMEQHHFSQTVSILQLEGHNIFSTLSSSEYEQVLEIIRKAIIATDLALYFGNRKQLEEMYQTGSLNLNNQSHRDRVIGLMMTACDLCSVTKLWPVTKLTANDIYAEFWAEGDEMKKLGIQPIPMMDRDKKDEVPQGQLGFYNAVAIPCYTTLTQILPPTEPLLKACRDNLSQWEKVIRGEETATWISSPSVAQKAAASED
Chain of High affinity 3',5'-cyclic-AMP phosphodiesterase 7A (Q13946 whole entry, the tested form may be a part): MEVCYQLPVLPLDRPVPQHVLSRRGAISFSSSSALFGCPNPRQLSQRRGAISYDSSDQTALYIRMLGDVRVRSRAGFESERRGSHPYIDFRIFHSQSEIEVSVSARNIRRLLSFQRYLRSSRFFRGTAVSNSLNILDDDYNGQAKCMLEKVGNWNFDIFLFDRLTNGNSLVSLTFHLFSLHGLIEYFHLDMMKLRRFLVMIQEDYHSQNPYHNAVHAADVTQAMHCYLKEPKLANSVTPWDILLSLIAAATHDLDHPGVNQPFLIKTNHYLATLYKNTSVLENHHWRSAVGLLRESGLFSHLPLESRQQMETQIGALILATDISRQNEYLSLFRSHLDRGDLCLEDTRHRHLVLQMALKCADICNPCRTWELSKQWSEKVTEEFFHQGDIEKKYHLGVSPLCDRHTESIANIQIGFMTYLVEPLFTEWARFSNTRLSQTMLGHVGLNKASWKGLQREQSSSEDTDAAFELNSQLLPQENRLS
Chain of Cytochrome P450 2C9 (P11712 whole entry, the tested form may be a part): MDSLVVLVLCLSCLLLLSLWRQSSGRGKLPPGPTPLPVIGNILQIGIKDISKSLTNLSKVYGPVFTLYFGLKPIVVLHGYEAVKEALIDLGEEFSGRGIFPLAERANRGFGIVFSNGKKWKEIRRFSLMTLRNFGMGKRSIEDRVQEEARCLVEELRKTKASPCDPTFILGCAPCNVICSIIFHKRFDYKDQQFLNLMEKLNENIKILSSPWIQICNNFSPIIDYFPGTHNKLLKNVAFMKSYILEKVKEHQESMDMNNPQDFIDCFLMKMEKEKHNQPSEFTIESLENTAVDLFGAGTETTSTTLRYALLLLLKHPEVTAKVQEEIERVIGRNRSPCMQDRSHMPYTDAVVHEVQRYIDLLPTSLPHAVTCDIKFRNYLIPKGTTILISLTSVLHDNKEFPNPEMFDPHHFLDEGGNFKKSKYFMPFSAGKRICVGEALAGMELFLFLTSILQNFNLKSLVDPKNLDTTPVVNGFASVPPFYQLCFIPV
Chain of Cytochrome P450 3A4 (P08684 whole entry): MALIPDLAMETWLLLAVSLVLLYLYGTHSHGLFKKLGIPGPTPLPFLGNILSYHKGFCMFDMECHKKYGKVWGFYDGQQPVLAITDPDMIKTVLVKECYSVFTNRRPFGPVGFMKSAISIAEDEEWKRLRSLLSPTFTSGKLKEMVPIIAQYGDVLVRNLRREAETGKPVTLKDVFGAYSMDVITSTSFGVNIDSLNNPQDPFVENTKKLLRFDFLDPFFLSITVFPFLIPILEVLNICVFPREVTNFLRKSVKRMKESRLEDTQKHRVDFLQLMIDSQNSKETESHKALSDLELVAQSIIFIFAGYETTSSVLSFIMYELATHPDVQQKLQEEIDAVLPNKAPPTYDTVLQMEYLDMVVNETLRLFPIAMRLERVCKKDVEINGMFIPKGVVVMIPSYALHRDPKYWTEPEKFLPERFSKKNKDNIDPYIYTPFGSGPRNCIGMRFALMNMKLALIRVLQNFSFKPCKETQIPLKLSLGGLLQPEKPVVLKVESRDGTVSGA
Chain of High affinity cGMP-specific 3',5'-cyclic phosphodiesterase 9A (O76083 whole entry, the tested form may be a part): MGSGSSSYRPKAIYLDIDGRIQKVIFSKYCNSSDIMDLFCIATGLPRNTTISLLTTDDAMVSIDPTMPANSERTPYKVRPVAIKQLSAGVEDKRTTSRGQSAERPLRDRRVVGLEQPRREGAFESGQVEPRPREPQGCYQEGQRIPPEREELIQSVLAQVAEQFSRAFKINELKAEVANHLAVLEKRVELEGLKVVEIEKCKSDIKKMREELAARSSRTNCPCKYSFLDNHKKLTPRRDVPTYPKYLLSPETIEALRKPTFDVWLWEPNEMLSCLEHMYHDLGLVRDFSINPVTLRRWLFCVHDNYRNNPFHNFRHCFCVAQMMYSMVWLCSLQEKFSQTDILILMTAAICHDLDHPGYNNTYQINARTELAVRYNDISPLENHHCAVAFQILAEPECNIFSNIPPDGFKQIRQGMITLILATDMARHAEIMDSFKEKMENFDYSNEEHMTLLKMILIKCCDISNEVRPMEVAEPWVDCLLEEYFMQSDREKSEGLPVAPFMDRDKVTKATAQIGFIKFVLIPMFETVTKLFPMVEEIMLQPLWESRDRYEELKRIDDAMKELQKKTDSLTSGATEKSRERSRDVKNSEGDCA
Chain of cGMP-inhibited 3',5'-cyclic phosphodiesterase 3A (Q14432 whole entry, the tested form may be a part): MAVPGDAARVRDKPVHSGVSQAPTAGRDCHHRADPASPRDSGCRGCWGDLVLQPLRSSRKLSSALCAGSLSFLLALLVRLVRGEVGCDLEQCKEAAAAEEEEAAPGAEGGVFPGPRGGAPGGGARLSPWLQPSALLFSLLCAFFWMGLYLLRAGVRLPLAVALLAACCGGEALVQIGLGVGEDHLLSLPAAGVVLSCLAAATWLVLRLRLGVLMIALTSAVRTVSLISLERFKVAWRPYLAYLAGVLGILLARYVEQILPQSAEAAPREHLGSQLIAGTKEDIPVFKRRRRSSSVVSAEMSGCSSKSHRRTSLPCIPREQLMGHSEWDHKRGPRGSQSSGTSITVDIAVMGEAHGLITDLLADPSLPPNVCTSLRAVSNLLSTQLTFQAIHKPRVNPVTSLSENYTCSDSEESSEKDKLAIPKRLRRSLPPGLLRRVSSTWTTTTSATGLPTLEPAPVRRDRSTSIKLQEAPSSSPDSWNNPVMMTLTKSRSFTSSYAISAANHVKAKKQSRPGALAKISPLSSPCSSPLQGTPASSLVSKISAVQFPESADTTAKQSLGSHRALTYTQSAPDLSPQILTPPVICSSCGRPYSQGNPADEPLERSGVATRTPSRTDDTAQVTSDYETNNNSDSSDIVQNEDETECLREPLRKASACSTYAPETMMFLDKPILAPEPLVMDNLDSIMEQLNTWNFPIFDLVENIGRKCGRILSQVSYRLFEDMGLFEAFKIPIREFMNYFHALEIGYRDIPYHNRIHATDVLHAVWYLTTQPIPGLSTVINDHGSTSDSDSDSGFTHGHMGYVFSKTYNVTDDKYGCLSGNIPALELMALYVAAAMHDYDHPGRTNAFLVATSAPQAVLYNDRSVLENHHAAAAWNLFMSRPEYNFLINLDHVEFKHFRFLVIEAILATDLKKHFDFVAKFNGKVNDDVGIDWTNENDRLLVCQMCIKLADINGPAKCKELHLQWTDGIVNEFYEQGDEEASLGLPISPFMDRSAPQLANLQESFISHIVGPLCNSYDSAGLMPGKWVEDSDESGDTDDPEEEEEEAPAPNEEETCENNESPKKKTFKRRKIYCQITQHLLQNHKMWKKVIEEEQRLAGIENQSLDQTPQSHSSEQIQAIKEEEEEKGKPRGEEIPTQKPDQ

`CC1=C(C(=O)OCC2CCCCC2)C(c2ccc(OC(F)F)c(OCC3CC3)c2)N(C(=O)SCc2ccccc2)C(=O)N1` (stereo unspecified) yielded a clearance in data set [1] of 6.56 mL/min/kg. In data set [2], this compound displayed an MRT of 1.77 h. Also, the half-maximal inhibitory concentration (IC50) was over 25 µM on Cytochrome P450 3A4; over 25 µM on Cytochrome P450 1A2; over 25 µM at Cytochrome P450 2C9; 0.597 µM in data set [4]; 2.1 µM in data set [8]; over 40 µM in data set [12]. Half-maximal inhibition in data set [13] (IC50) was put at 1.76 µM. For the same compound, the result with Rattus norvegicus [3] and in the data set on Rattus norvegicus [10] was Active. Moreover, the Activity result in the data set on LX-2 [5] and in the data set with LX-2 [11] was “Dose-Dependent Effect” throughout. Besides, the inhibition in [6] and in data set [9] was under 50% each time. Besides, the result in the data set on Rattus norvegicus [7] was inactive.

Values taken from ChEMBL document CHEMBL5506023, “Design, Synthesis, and Evaluation of Dihydropyrimidine Derivatives as Selective PDE1 Inhibitors for the Treatment of Liver Fibrosis” (J Med Chem, 2024).
